Test results as given in US6964763B1, “Methods and compositions for inhibiting HIV infectivity and blocking chemokine activity” (priority 1997, dated 2005).
Where a SMILES comes first, the peptide text is derived from it.

How the values were obtained:
gp120 (LAI isolate) = biological target: T1, gp120 (LAI isolate) (Human immunodeficiency virus type 1 group M subtype B, UniProt P03377); assay type: binding, HIV-1
T1 construct: baculovirus-expressed HIV-1 gp120 derived from LAV and MN isolates; host or cells: baculovirus expression system
Description: Increasing concentrations of soluble ^125I-labeled recombinant gp120LAV (nM -1μM) were incubated with immobilized ligand for 2 hours at 37° C., and bound radioactivity measured as in FIGS. 2A and 2B. […] This plot represents a single data set of triplicate samples (72=2, errors as SD).
Briefly, TSP1 (5-10 μg/ml) or fusion proteins and peptides (10-20 μg/ml) were immobilized on detachable 96-well microtiter plate strips (Immulon-4 Remov-a-well, Dynatech Laboratories, Inc.), by overnight incubation at 4° C. in carbonate buffer (100 mM Na2CO3/1 mM MgCl2/0.02% NaN3, pH 9.8). Washed wells were blocked with 0.5% bovine serum albumin (“BSA”), then incubated in triplicate with soluble radiolabeled ligand for 2.5 hours at 37° C. After extensive washing in 50 mM Tris pH 7.5, 150 mM NaCl, 0.5% Tween-20 (TBS-Tween), bound radioactivity was quantified by gamma counter. […] Specific activity of Na[^125I] was determined for each experiment, ranging from 0.06-1.0 μCi/μg. Specific binding was determined as quenchable in the presence of excess unlabeled ligand, above background binding to BSA-coated wells.
The gp120 envelope protein was tested to determine whether it shared this same specificity.

[1] = system: CD4-gp120 complex formation; assay: Competitive inhibition of 125I-CD4 binding to immobilized gp120; set-up: species or system HIV-1 (MN and LAI isolates); conditions: 10-fold molar excess (0.5 μM) competitor, 50 nM 125I-CD4, MN and LAI gp120
Description: FIG. 5 is a graph showing competitive inhibition of ^125I-CD4 binding to gp120. […] Samples were incubated, and bound TSP1 was measured as in FIG. 2. A single data set of triplicate samples (η=3, error as SD) is shown.
(§1) Radiolabeling was performed with Na[^125I]
These observations support a role for salivary TSP1 as a direct inhibitor of HIV infectivity.

CD4 = biological target: T2, CD4 (Homo sapiens, UniProt P01730); assay: Solid phase binding of 125I-CD4 to immobilized TSP1 and TSP analog
T2 construct: CHO cell-expressed soluble CD4; host or cells: CHO cells
Description: FIG. 12 is a graph showing the binding of ^125I-CD4 to TSP1 and a TSP analog. Increasing concentrations of soluble ^125I-labeled CD4 (0.1μM -1.0 μM) were added to immobilized TSP1, CVSTCG polypeptide (SEQ. ID. No. 1). Samples were incubated and bound ^125I-labeled CD4 measured by solid-binding radio-amino assay, […].
as §1

[2] = biological target: recombinant HIV-1 gp160 (gp120 non-covalently linked to gp41) (Human immunodeficiency virus type 1 group M subtype B, UniProt P03375)
Description: Increasing concentrations of soluble ^125I-labeled TSP1 (1 nM-μM) were added to immobilized recombinant HIV-1 gp160 for 3 hours at 22° C., and bound TSP1 measured after extensive washing. Non-linear curve fit was generated with Excell™ version 5.0. Apparent affinity was estimated from Scatchard analysis. (n=2; error calculated as standard deviation, SD).
A fixed concentration of ^125I-labeled TSP 1(50 nM) was added to immobilized rgp 160 in the absence or presence of 10-fold molar excess (0.5 μM) unlabeled TSP1, fusion protein LFP75-155 containing the LIMPII TSP binding domain (aa 75-155), or downstream fusion protein LFP 156-243. Samples were incubated, and bound TSP 1 was measured as in FIG. 2A. Plots represent single data sets of triplicate samples. (n=3, error as SD).
Briefly, TSP1 (5-10 μg/ml) or fusion proteins and peptides (10-20 μg/ml) were immobilized on detachable 96-well microtiter plate strips (Immulon-4 Remov-a-well, Dynatech Laboratories, Inc.), by overnight incubation at 4° C. in carbonate buffer (100 mM Na2CO3/1 mM MgCl2/0.02% NaN3, pH 9.8). Washed wells were blocked with 0.5% bovine serum albumin (“BSA”), then incubated in triplicate with soluble radiolabeled ligand for 2.5 hours at 37° C. After extensive washing in 50 mM Tris pH 7.5, 150 mM NaCl, 0.5% Tween-20 (TBS-Tween), bound radioactivity was quantified by gamma counter. Radiolabeling was performed with Na[^125I] […] Specific activity of Na[^125I] was determined for each experiment, ranging from 0.06-1.0 μCi/μg. Specific binding was determined as quenchable in the presence of excess unlabeled ligand, above background binding to BSA-coated wells.

[3] = system: monocytotropic strains of HIV-1, p13 and HA593; assay: HIV-1 infectivity assay with monocytotropic patient isolates; assay type: cell-based; conditions: 100 μg/ml TSP1, viral moi 0.8
HIV-1 isolate IIIB = assay: HIV-1 infectivity assay, virus pre-incubated with TSP1 or saliva, p24 ELISA day 7; assay type: cell-based
Description: HIV-1 isolate IIIB was pre-incubated in the absence of TSP1, or with various concentrations of purified TSP1 for 1 hour at 37° C. Pre-incubated virus-TSP1 mixtures were added to target cells either directly (−), or first passed through 0.2 μm filters (+). Phorbol myrisate acetate (“PMA”) activated primary peripheral blood mononuclear cells (“PBMC”), SK23 (T-cell line) or U937 (promonocytic line) were inoculated with the multiplicities of infection (“moi”) indicated. After an additional 1 hour at 37° C., infected cells were washed, cultured for 7 days, and HIV-1 p24 antigen measured by ELISA. Inhibition is expressed for a single data set as percent of maximum p24 detected in the absence of TSP1.
PMA-stimulated primary PBMC were infected with 0.02 moi HIV/IIIB that had been pre-incubated with TSP1 alone, or with LIMPII fusion protein LFP75-155 alone or in the presence of TSP1, and filtered prior to incubation as in FIG. 7. TSP-mediated inhibition is expressed as percent decrease in p24 relative to maximum p24 detected in the absence of TSP 1. Data shown represent the average of two independent experiments (error as SD).
CD4+T lymphoblastoid (SK23, Jurkat) and promonocytic (U937) cell lines, or peripheral blood mononuclear cells (“PBMC”) obtained from HIV seronegative donors and activated with phytohemagglutinin (“PHA”, 2 μg/ml for 72 hours), were cultured in RPMI 1640, 5% fetal bovine serum (“FBS”, frozen/thawed and complement-inactivated 30 minutes at 56° C.), 100 U/ml penicillin and 100 μg/ml streptomycin (GIBCO/BRL, Grand Island, N.Y.). PBMC medium also contained 32 U/ml interleukin-2 (Sigma Chemical Co., St. Louis, Mo.). FBS samples were pre-screened to assure that levels of TSP were<10 μg/ml. Acute HIV infection was performed using HIV-1 isolate IIIB stock virus as previously described (Laurence et al., “Human Immunodeficiency Virus Infection of Helper T-Cell Clones: Early Proliferative Defects Despite Intact Antigen-Specific Recognition and Interleukin 4 Secretion,” J. Clin. Invest., 83:1843-1848 (1989); Laurence et al., “Human Immunodeficiency Virus Infection of Monocytes: Relationship to Fc-Gamma Receptors and Antibody-Dependent Viral Enhancement,” Immunology, 70:338-343 (I 990), which are hereby incorporated by reference). Briefly, 2.5×10^5 target cells were exposed to stock virus at a moi of either 0.02 or 0.15 for 2 hours at 37° C., washed once with PBS, and re-plated in tissue culture-treated microwells with 0.3 ml fresh culture medium. At 3-4 days post-inoculation, one half of culture supernatant from each well was replaced with fresh medium. HIV activity was determined after 7 days using an ELISA antigen capture assay for HIV-1 p24 (gag) core protein (Dupont Medical Products, Boston, Mass.) of Triton X-100 solubilized culture supernatants.
• 100 μl of HIV-1/IIIB inocula were mixed with 100 μl of various concentrations of whole saliva, salivary fluid fractions, or purified platelet TSP1 diluted in serum-free cell culture medium, and pre-incubated for 2 hours at 37° C. Then, 10-fold serial dilutions were added directly to target cell cultures for assay of infectivity. In some experiments, pre-incubated virus-saliva/TSP mixtures were filtered through 0.2 μm nitrocellulose syringe filters (Gelman Sciences, Ann Arbor, Mich.) prior to inoculation of target cells. Salivary TSP1 Depletion Experiments

RANTES = biological target: T3, RANTES (Homo sapiens, UniProt P13501); assay: Solid phase binding of 125I-RANTES to immobilized TSP
T3 sequence (P13501 24-91): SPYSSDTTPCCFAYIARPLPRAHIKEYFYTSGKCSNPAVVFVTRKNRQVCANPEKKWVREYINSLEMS
Description: FIG. 9 is a graph showing the binding of ^125I-RANTES to TSP1. Increasing concentrations of soluble ^125I-labeled RANTES (0.01 μM -10.0 μM) were added to immobilized TSP1. Samples were incubated and bound ^125I-labeled RANTES measured by solid-binding radio-amino assay.
FIG. 10 is a graph showing the Hanes analysis of “^125-RANTES binding to immobilized TSP1. The Hanes analysis provides a measure of assessing the possibility of binding one or more factors to a given molecule.
as §1
In solid phase assays, ^125I-RANTES binded to immobilized TSP. […] Estimated stoichiometry at equilibrium was low (˜0.5 RANTES molecule for every 10 TSP monomer), although the steep slope of the second phase indicated a cooperative interaction (Hanes plot, FIG. 10). One interpretation of the data is that RANTES homodimerization is favored over binding to TSP. At a concentration that shifts equilibrium toward formation of the heterologous complex, positive cooperativity likely reflects a higher apparent affinity of RANTES monomers for binding to TSP, with an increase in monomers being a function of the odd number of sites presented by TSP homotrimers.

CD4 surface expression = assay: Cell surface expression of CD4 by flow cytometry; assay type: cell-based, human; conditions: 100 μg/ml TSP1, 3 days; Jurkat, SK23, PHA-activated PBMC
Description: CD4 surface expression on HIV-1 infected or uninfected U937 cells was evaluated by indirect immunofluorescence flow cytometry using anti-CD4 mAb Leu3, as detailed elsewhere (Laurence et al., “Human Immunodeficiency Virus Infection of Helper T-Cell Clones: Early Proliferative Defects Despite Intact Antigen-Specific Recognition and Interleukin 4 Secretion,” J. Clin. Invest., 83:1843-1848 (1989), which is hereby incorporated by reference).
Another mechanism to explain TSP-mediated blockade to HIV infection would be a direct effect on target cells, whereby alterations in cell function would decreased the capacity to support productive infection. To address whether exogenous purified TSP1 induced down-modulation of the high affinity HIV receptor, CD4+ Jurkat and SK23 T-cell lines, as well as PHA-activated PBMC, were monitored for differences in CD4 surface expression after culture for 3 days in the absence or presence of 100 μg/ml TSP1. By flow cytometric analysis of cells stained with fluorescein-conjugated anti-CD4 IgG, no change in relative fluorescence intensity or percent CD4+cell was detected.

VGSCCT [scrambled control peptide, reference compound]
binding of 125I-gp120 to immobilized peptide (in words) (gp120 (LAI isolate)): inefficient binding
inhibition of 125I-CD4 binding to immobilized gp120 [1]: enhanced binding

CC(C)[C@H](NC(=O)[C@H](CO)NC(=O)[C@@H](N)CS)C(=O)N[C@H](C(=O)N[C@@H](CS)C(=O)NCC(=O)O)[C@@H](C)O [CSVTCG, cys-ser-val-thr-cys-gly] (H-CSVTCG-OH; N-terminus and C-terminus assumed)
inhibition of 125I-CD4 binding to immobilized gp120 [1]: 53±9%
binding of 125I-CD4 to immobilized ligand (in words) (CD4): binded directly

thrombospondin-1 [TSP1]
inhibition of 125I-TSP1 binding to gp160 ([2]; 10-fold molar excess (0.5 μM) unlabeled competitor, 50 nM 125I-TSP1): 94±6%
Kd ([2]; read-out: apparent affinity of TSP1 binding to immobilized recombinant gp160, soluble 125I-TSP1, Scatchard analysis): ~250 nM
inhibition of HIV infectivity, strains p13 and HA593 [3]: ≥ 98±1%
reduction of HIV-1 infection of PHA-activated donor PBMC (p24) (HIV-1 isolate IIIB; 2-10 μg/ml TSP1, pre-filtered): > 83%
reduction of HIV-1 infectivity after brief exposure (HIV-1 isolate IIIB; 5 minutes exposure of TSP-virion mixture, 1 μg/ml TSP1): > 50%
inhibition of HIV-1 IIIB infection, SK23 (HIV-1 isolate IIIB; SK23 CD4+ T-lymphoblastoid cell line): ≥ 90.7%
inhibition of HIV-1 IIIB infection, U937 (HIV-1 isolate IIIB; U937 monocytoid cell line): ≥ 83.0%
inhibition of HIV-1 on direct addition of TSP1 (HIV-1 isolate IIIB; no filtration, only with high concentration of TSP1 and low moi inoculum): 50-75%
inhibition of 125I-CD4 binding to immobilized gp120 [1]: complete inhibition
estimated stoichiometry at equilibrium (RANTES): ~0.5 RANTES molecule for every 10 TSP monomer
Kd (RANTES; saturatable, biphasic higher order kinetics, read-out: half maximal binding of 125I-RANTES to immobilized TSP): ~330 nM
change in relative fluorescence intensity or percent CD4+ cells (CD4 surface expression): no change
binding of 125I-CD4 to immobilized ligand (in words) (CD4): concentration dependent saturatable manner

GRGDS (GRGDA) [reference compound]
binding of 125I-gp120 to immobilized peptide (in words) (gp120 (LAI isolate)): inefficient binding
inhibition of 125I-CD4 binding to immobilized gp120 [1]: 4±4%

fibrinogen [reference compound]
effect on HIV-1 infection of PBMC (in words) (HIV-1 isolate IIIB; same system as TSP1, pre-filtered): no effect
